# Patent US9969970B2, “DNA-cell conjugates” (The Regents of the University of California, priority 2009, dated 2018)
# {Phos} = phosphine group for Staudinger ligation to cell-surface azides
# What was measured:
# Jurkat cells [1] = assay: Quantification of DNA attached to the cell surface; format: cell-based; conditions: Ac4ManNAz-fed cells, Staudinger ligation
# Jurkat cells [2] = assay: Bulk cell acidification control with rotenone; format: cell-based; conditions: 1 μM rotenone, low-buffered media, ~10^6 cells/mL, 37° C.
# Experimental: (§1) Incubation with rotenone would be expected to interfere with the mitochondrial electron transport chain, causing cells to shift to lactic acid fermentation to complete the glycolytic cycle. The resulting excretion of lactic acid should then increase the rate of acidification in the cellular environment. In the experiment, captured cells were first incubated under normal conditions to establish a baseline rate of acidification (˜8.8 milli-pH/min) under aerobic metabolism.
# Jurkat cells [3] = assay: Single cell acidification on the bifunctional microelectrode array, rotenone stimulation; format: cell-based
# Experimental: Metabolic monitoring was accomplished as follows: Cells were suspended at a concentration of 10^6/ml, and the suspension was flowed into the microfluidic device. Cell suspensions were flowed into the channel using 1 mL syringes with Teflon tubing. Where Jurkat and primary T cells were monitored simultaneously they were labeled with CellTracker Green and Red dyes, respectively, as previously described and mixed in an equal ratio. Following a 5 min incubation to allow DNA-based cell capture, the unbound cells were rinsed away (5 ul/min for 3 min) with the low-buffered media. After rinsing, the pH response was monitored electrochemically for 10 min. After this recording, cells were released from the electrodes by heating the device to 55° C. and applying a strong rinse (200 uL/min) with the low-buffered media. Once rinsed and allowed to return to 37° C., the device could be reloaded with cells. This allowed for multiple measurements to be taken with a single cell preparation.
# Voltage measurements were recorded between the iridium oxide electrode and a distant FLEXREF Ag/AgCl reference electrode from World Precision Instruments. An identical iridium oxide electrode outside the cell area was used to compensate for any sensor drift. The sensor electrodes were connected to a National Instruments PCI-6031E data acquisition card with 16 bit analog to digital conversion. The digitized signals were monitored using a custom Labview VI, sampling in multiplex at 3 hz. Voltage signals were processed with a 1% Loess filter using Peak Fit software to reduce noise.
# as §1
# Jurkat cells [4] = assay: AFM measurement of de-adhesion force, cell-cantilever; conditions: cantilever attachment method
# Experimental: FIG. 18. AFM measurement of de-adhesion force. A) Six sample traces for a single cell are shown in shades of gray, with the average trace shown in black. At zero distance, the cell is in full contact with the cantilever, which is applying a positive force. As distance increases, the cantilever is pulled away from the glass slide surface, causgin the cell-cantilever linkage to rupture and result in the zero-force, no-contact region. The force of d-adhesion was calculated as the difference between the curve minimum and the horizontal no=contact region. B) Adhesion forces were measured under different retraction rates (15.7 and 8.2 μm/s) and contact forces (400 and 200 pN) for the DNA, ConA, and antibody systems. Data were obtained by measuring size de-adhesion events on more than four different cells. Error bards represent one standard deviation.
# Our assay to determine the strength of cantilever attachment was designed such that cell-cantilever adhesions were fewer in number, and therefore weaker overall, than DNA-based adhesions between a cell and the complementarily functionalized glass slide. […] The force of de-adhesion was measured for each attachment method using two different retraction rates and two different contact forces (FIG. 18a). The measured force of de-adhesion increased with contact force and retraction rate across all attachment methods, as predicted by the Bell model. […]
# Jurkat cells [5] = assay: Bulk cell growth and morphology in the presence of adhesion molecules; format: cell-based; conditions: adhesion molecule in suspension; DNA-coated cells with complementary sequence
# Experimental: (§2) FIG. 17. Comparison of biomolecule-based adhesion methods. a) Bulk cell growth rates were first determined in the presence of the adhesion molecules. A suspension of Jurkat cells was combined with ConA or anti-CD3 IgG, and a solution of DNA-coated cells was combined with the complementary DNA strands. At various time points the total number of cells was counted. The control sample was grown in the absence of any adhesion molecules. b) To evaluate cell capture efficiency, solutions of 20 μM FITC-labeled ssDNA, 20 μM FITC-labeled ConA, and 6 μM FITC-labeled anti-CD3 IgG were applied to aldehyde-coated glass slides, and the biomolecules were attached by reductive amination. Solutions containing 1×10^7 Jurkat cell mL^−1 were then introduced onto the resulting slides. The samples were incubated for 10 min at room temperature and then washed with two portions of phosphate-buffered saline (PBS) before evaluation. c) To evaluate cell viability, cells were immobilized on DNA, ConA, and anti-CD3 IgG coated aldehyde slides. […] The cells were evaluated within 1 h by fluorescence microscopy. * ConA and antibody immobilized cells that were partially stained by annexin were counted as cells undergoing apoptosis. […]
# The effects of the adhesion molecules on the viability of the cells were assessed using two different methods. […]
# [6] = 20 bp DNA duplex; ConA-mannose; antibody-antigen; cited from earlier work
# Jurkat cells [7] = assay: Cell capture, morphology and annexin V/PI viability of cells immobilized on biomolecule-coated slides; format: cell-based
# Experimental: as §2, with “slides.” for “slides. The samples were incubated for 10 min at room temperature and then washed with two portions of phosphate-buffered saline (PBS) before evaluation. c) To evaluate cell viability, cells were immobilized on DNA, ConA, and anti-CD3 IgG coated aldehyde slides.”
# The extent of apoptosis of surface bound cells was determined by annexin V/propidium iodide staining (BD Biosciences). […] The cells were imaged by fluorescence microscopy and the number of non-viable cells counted after one hour. […]
compound,measurement,setting,value
"Phosphine-modified ssDNA: phosphine-modified ssDNA (5′-phos-GTAACGATCCAGCTGTCACT-3′) ligated to cell-surface azides by Staudinger ligation (DNA GTAACGATCCAGCTGTCACT; DNA, 5' {Phos}, backbone not given here)",ssDNA molecules per cell,Jurkat cells [1],"≈ 270,000"
C=C(C)[C@H]1Cc2c(ccc3c2O[C@@H]2COc4cc(OC)c(OC)cc4[C@@H]2C3=O)O1 [rotenone],acidification over 60 min compared to identical untreated cells,Jurkat cells [2],more than twice
same,increase in the acidification rate,Jurkat cells [3]; 10 μM rotenone versus baseline,three-fold
same,time to increase in acidification rate,Jurkat cells [3]; after addition of 10 μM rotenone,≤ 1 min
same,acidification rate,"Jurkat cells [3]; single Jurkat cells after 10 μM rotenone added to channel, baseline ~8.8 milli-pH/min",~27.7 milli-pH/min
concanavalin A [ConA],zero-force attachment events in de-adhesion measurements,Jurkat cells [4],12%
same,cell growth over a three-day period,Jurkat cells [5],aggregated and were no longer alive after 12 h
same,force of one individual linkage,[6],47 pN
same,"apoptotic and necrotic cells, annexin V and PI staining",Jurkat cells [7]; 24 and 48 h after immobilization,significantly higher numbers of apoptotic cells
same,morphology of immobilized cells,Jurkat cells [7]; after 48 h on coated slides,significant changes
